Source: ChEMBL document CHEMBL3603745, “Synthesis of ciprofloxacin dimers for evaluation of bacterial permeability in atypical chemical space” (Bioorg Med Chem Lett, 2015)
Values after ≈ are worked out from the molar mass of the structure shown.

How the values were obtained:
[1] = test system: Staphylococcus aureus; assay: Antibacterial activity against fluoroquinolone-resistant Staphylococcus aureus NB01006-AVR005 harboring gyrA S84L, parC S80F, parE E471K by broth microdilution method; type: functional
[2] = test system: Pseudomonas aeruginosa; assay: Antibacterial activity against wild type Pseudomonas aeruginosa PAO1 by broth microdilution method; type: functional
[3] = test system: Escherichia coli; assay: Antibacterial activity against wild type Escherichia coli MC4100 by broth microdilution method; type: functional
[4] = test system: Pseudomonas aeruginosa; assay: Antibacterial activity against mexX, mexB deficient Pseudomonas aeruginosa NB52023-CDK006 harboring gyrAT83I and parC S87L by broth microdilution method; type: functional
[5] = test system: Escherichia coli; assay: Antibacterial activity against wild type Escherichia coli ATCC 25922 by broth microdilution method; type: functional
[6] = test system: Pseudomonas aeruginosa; assay: Antibacterial activity against mexX, mexB deficient Pseudomonas aeruginosa NB52023-CDK005 harboring gyrAT83I by broth microdilution method; type: functional
[7] = test system: Staphylococcus aureus; assay: Antibacterial activity against wild type Staphylococcus aureus ATCC 29213 by broth microdilution method; type: functional
[8] = test system: Pseudomonas aeruginosa; assay: Antibacterial activity against Pseudomonas aeruginosa K1542 deficient with mexX, mexB by broth microdilution method; type: functional
[9] = test system: Escherichia coli; assay: Antibacterial activity against wild type Escherichia coli BW5328/pAH69 by broth microdilution method; type: functional
[10] = test system: Escherichia coli; assay: Antibacterial activity against tolC-deficient Escherichia coli NB27005-CDY0039 expressing gyrA S83L […], parC S80I mutant by broth microdilution method; type: functional
[11] = test system: Escherichia coli; assay: Antibacterial activity against Escherichia coli imp-4213 by broth microdilution method; type: functional
[12] = test system: Escherichia coli; assay: Antibacterial activity against tolC-deficient Escherichia coli JW5503-1 by broth microdilution method; type: functional
[13] = test system: Staphylococcus aureus; assay: Antibacterial activity against wild type methicillin-susceptible Staphylococcus aureus ATCC 49951 by broth microdilution method; type: functional
[14] = test system: Escherichia coli; assay: Antibacterial activity against fluoroquinolone-resistant Escherichia coli CH10 harboring gyrA S83L D87N, parC S80I E84G, AcrA+ by broth microdilution method; type: functional
[15] = Inhibition of Escherichia coli recombinant gyrase A2B2 assessed as reduction of pHOT-1 supercoiling after 90 mins

Compound	MIC [1] [µg/mL]	MIC [2] [µg/mL]	MIC [3] [µg/mL]	MIC [4] [µg/mL]	MIC [5] [µg/mL]	MIC [6] [µg/mL]	MIC [7] [µg/mL]	MIC [8] [µg/mL]	MIC [9] [µg/mL]	MIC [10] [µg/mL]	MIC [11] [µg/mL]	MIC [12] [µg/mL]	MIC [13] [µg/mL]	MIC [14] [µg/mL]	IC50 [15] [nM]
C=CCN1CCN(c2cc3c(cc2F)c(=O)c(C(=O)O)cn3C2CC2)CC1	32 (≈ 86.2 µM)	1 (≈ 2.69 µM)	0.06 (≈ 0.162 µM)	32 (≈ 86.2 µM)	≤ 0.03	4 (≈ 10.8 µM)	0.125 (≈ 0.337 µM)	0.25 (≈ 0.673 µM)	0.06 (≈ 0.162 µM)	2 (≈ 5.38 µM)	≤ 0.03	≤ 0.03	0.125 (≈ 0.337 µM)	> 32	580
CC(C)(C)OC(=O)NCCCCCC(=O)N1CCN(c2cc3c(cc2F)c(=O)c(C(=O)O)cn3C2CC2)CC1	> 32	> 32	> 32	> 32	> 32	> 32	2 (≈ 3.67 µM)	> 32	> 32	2 (≈ 3.67 µM)	0.25 (≈ 0.459 µM)	0.06 (≈ 0.11 µM)	2 (≈ 3.67 µM)	> 32	4350
CN(CC(=O)N1CCN(c2cc3c(cc2F)c(=O)c(C(=O)O)cn3C2CC2)CC1)CC(=O)N1CCN(c2cc3c(cc2F)c(=O)c(C(=O)O)cn3C2CC2)CC1	> 32	2 (≈ 2.58 µM)	0.25 (≈ 0.323 µM)	32 (≈ 41.4 µM)	0.25 (≈ 0.323 µM)	8 (≈ 10.3 µM)	4 (≈ 5.17 µM)	0.5 (≈ 0.646 µM)	0.25 (≈ 0.323 µM)	32 (≈ 41.4 µM)	0.06 (≈ 0.0775 µM)	0.06 (≈ 0.0775 µM)	2 (≈ 2.58 µM)	> 32	4370
O=C(NCCCCC(=O)N1CCN(c2cc3c(cc2F)c(=O)c(C(=O)O)cn3C2CC2)CC1)c1cccc(C(=O)NCCCCC(=O)N2CCN(c3cc4c(cc3F)c(=O)c(C(=O)O)cn4C3CC3)CC2)c1	> 32	> 32	16 (≈ 16.1 µM)	> 32	16 (≈ 16.1 µM)	> 32	> 32	> 32	16 (≈ 16.1 µM)	> 32	2 (≈ 2.02 µM)	0.5 (≈ 0.505 µM)	4 (≈ 4.04 µM)	> 32	9970
O=C(O)c1cn(C2CC2)c2cc(N3CCN(C(=O)c4cccc(C(=O)N5CCN(c6cc7c(cc6F)c(=O)c(C(=O)O)cn7C6CC6)CC5)c4)CC3)c(F)cc2c1=O	> 32	> 32	> 32	> 32	> 32	> 32	2 (≈ 2.52 µM)	> 32	> 32	> 32	0.06 (≈ 0.0757 µM)	0.125 (≈ 0.158 µM)	0.25 (≈ 0.315 µM)	> 32	110
O=C(CN1CCN(c2cc3c(cc2F)c(=O)c(C(=O)O)cn3C2CC2)CC1)NCCOCCOCCNC(=O)CN1CCN(c2cc3c(cc2F)c(=O)c(C(=O)O)cn3C2CC2)CC1	> 32	> 32	32 (≈ 35.9 µM)	> 32	32 (≈ 35.9 µM)	> 32	> 32	32 (≈ 35.9 µM)	32 (≈ 35.9 µM)	> 32	8 (≈ 8.98 µM)	4 (≈ 4.49 µM)	> 32	> 32	1040
CC[C@H]1OC(=O)[C@H](C)[C@@H](O[C@H]2C[C@@](C)(OC)[C@@H](O)[C@H](C)O2)[C@H](C)[C@@H](O[C@@H]2O[C@H](C)C[C@H](N(C)C)[C@H]2O)[C@](C)(O)C[C@@H](C)C(=O)[C@H](C)[C@@H](O)[C@]1(C)O [ERYTHROMYCIN]	0.5 (≈ 0.681 µM)	> 32	> 32	> 32	> 32	> 32	0.25 (≈ 0.341 µM)	> 32	32 (≈ 43.6 µM)	2 (≈ 2.73 µM)	2 (≈ 2.73 µM)	2 (≈ 2.73 µM)	0.25 (≈ 0.341 µM)	> 32	
O=C(CCN1CCN(c2cc3c(cc2F)c(=O)c(C(=O)O)cn3C2CC2)CC1)NCCOCCNC(=O)CCN1CCN(c2cc3c(cc2F)c(=O)c(C(=O)O)cn3C2CC2)CC1	> 32	> 32	32 (≈ 36.6 µM)	> 32	32 (≈ 36.6 µM)	> 32	> 32	> 32	32 (≈ 36.6 µM)	> 32	8 (≈ 9.14 µM)	4 (≈ 4.57 µM)	> 32	> 32	9090
O=C(O)c1cn(C2CC2)c2cc(N3CCN(Cc4cccc(CN5CCN(c6cc7c(cc6F)c(=O)c(C(=O)O)cn7C6CC6)CC5)c4)CC3)c(F)cc2c1=O	32 (≈ 41.8 µM)	32 (≈ 41.8 µM)	2 (≈ 2.61 µM)	> 32	1 (≈ 1.31 µM)	> 32	0.5 (≈ 0.654 µM)	8 (≈ 10.5 µM)	2 (≈ 2.61 µM)	> 32	≤ 0.03	0.06 (≈ 0.0784 µM)	0.25 (≈ 0.327 µM)	> 32	1180
O=C(CN1CCN(c2cc3c(cc2F)c(=O)c(C(=O)O)cn3C2CC2)CC1)NCCCN1CCN(CCCNC(=O)CN2CCN(c3cc4c(cc3F)c(=O)c(C(=O)O)cn4C3CC3)CC2)CC1	> 32	> 32	> 32	> 32	> 32	> 32	32 (≈ 33.9 µM)	> 32	> 32	> 32	8 (≈ 8.48 µM)	2 (≈ 2.12 µM)	8 (≈ 8.48 µM)	> 32	1590
O=CN1CCN(c2cc3c(cc2F)c(=O)c(C(=O)O)cn3C2CC2)CC1	32 (≈ 89 µM)	2 (≈ 5.57 µM)	0.25 (≈ 0.696 µM)	32 (≈ 89 µM)	0.125 (≈ 0.348 µM)	16 (≈ 44.5 µM)	0.25 (≈ 0.696 µM)	0.25 (≈ 0.696 µM)	0.125 (≈ 0.348 µM)	4 (≈ 11.1 µM)	≤ 0.03	≤ 0.03	0.25 (≈ 0.696 µM)	> 32	250
O=C(O)c1cn(C2CC2)c2cc(N3CCN(CCOCCOCCOCCOCCOCCOCCOCCN4CCN(c5cc6c(cc5F)c(=O)c(C(=O)O)cn6C5CC5)CC4)CC3)c(F)cc2c1=O	> 32	16 (≈ 16 µM)	4 (≈ 4.01 µM)	> 32	2 (≈ 2.01 µM)	> 32	4 (≈ 4.01 µM)	16 (≈ 16 µM)	4 (≈ 4.01 µM)	8 (≈ 8.02 µM)	4 (≈ 4.01 µM)	0.125 (≈ 0.125 µM)	1 (≈ 1 µM)	> 32	1380
O=C(O)c1cn(C2CC2)c2cc(N3CCNCC3)c(F)cc2c1=O [CIPROFLOXACIN]	> 32		≤ 0.03	4 (≈ 12.1 µM)	≤ 0.03		0.5 (≈ 1.51 µM)	0.06 (≈ 0.181 µM)	≤ 0.03		≤ 0.03	≤ 0.03	0.25 (≈ 0.754 µM)	> 32	460
O=C(O)c1cn(C2CC2)c2cc(N3CCN(CCOCCOCCOc4ccc5ccc(=O)oc5c4)CC3)c(F)cc2c1=O	> 32	16 (≈ 26.3 µM)	2 (≈ 3.29 µM)	> 32	1 (≈ 1.65 µM)	> 32	2 (≈ 3.29 µM)	8 (≈ 13.2 µM)	1 (≈ 1.65 µM)	> 32	0.125 (≈ 0.206 µM)	≤ 0.03	2 (≈ 3.29 µM)	> 32	6670
O=C(O)c1cn(C2CC2)c2cc(N3CCN(CCOCCOCCOCCOCCOCCN4CCN(c5cc6c(cc5F)c(=O)c(C(=O)O)cn6C5CC5)CC4)CC3)c(F)cc2c1=O	> 32	32 (≈ 35.2 µM)	4 (≈ 4.4 µM)	> 32	2 (≈ 2.2 µM)	> 32	8 (≈ 8.8 µM)	8 (≈ 8.8 µM)	2 (≈ 2.2 µM)	> 32	0.125 (≈ 0.138 µM)	0.125 (≈ 0.138 µM)	2 (≈ 2.2 µM)	> 32	10000
O=C(O)c1cn(C2CC2)c2cc(N3CCN(CCOCCOCCOCCN4CCN(c5cc6c(cc5F)c(=O)c(C(=O)O)cn6C5CC5)CC4)CC3)c(F)cc2c1=O	> 32	16 (≈ 19.5 µM)	1 (≈ 1.22 µM)	> 32	1 (≈ 1.22 µM)	32 (≈ 39 µM)	16 (≈ 19.5 µM)	32 (≈ 39 µM)	1 (≈ 1.22 µM)	> 32	0.25 (≈ 0.305 µM)	0.125 (≈ 0.152 µM)	8 (≈ 9.75 µM)	> 32	4040
C=CCCC(=O)N1CCN(c2cc3c(cc2F)c(=O)c(C(=O)O)cn3C2CC2)CC1	32 (≈ 77.4 µM)	16 (≈ 38.7 µM)	1 (≈ 2.42 µM)	> 32	0.5 (≈ 1.21 µM)	> 32	0.25 (≈ 0.605 µM)	2 (≈ 4.84 µM)	1 (≈ 2.42 µM)	2 (≈ 4.84 µM)	≤ 0.03	≤ 0.03	0.25 (≈ 0.605 µM)	> 32	760
O=C(O)c1cn(C2CC2)c2cc(N3CCN(C(=O)OCCOCCOCCOC(=O)N4CCN(c5cc6c(cc5F)c(=O)c(C(=O)O)cn6C5CC5)CC4)CC3)c(F)cc2c1=O	> 32	> 32	16 (≈ 18.5 µM)	> 32	16 (≈ 18.5 µM)	> 32	4 (≈ 4.63 µM)	16 (≈ 18.5 µM)	16 (≈ 18.5 µM)	32 (≈ 37 µM)	0.25 (≈ 0.289 µM)	0.125 (≈ 0.145 µM)	2 (≈ 2.31 µM)	> 32	7250
